The source of these data is ChEMBL document CHEMBL3044926, “Controlling powdery mildew on cucurbit rootstock seedlings in the greenhouse with fungicides and biofungicides” (Crop Prot, 2012).

In data set [1] the test system is Podosphaera xanthii. The data set can be described thus: Fungicidal activity against Podosphaera xanthii (powdery mildew) inoculated in inter-specific squash hybrid Strong tosa (Cucurbita moschata x Cucurbita maxima) rootstock seedlings for 7 days prior to drug application assessed as disease severity on lower surface areas of cotyledonsat 45% in 0.6 g/L applied once measured 7 days post-drug dose under greenhouse conditions (water rvb = 5.1%). The format is functional.

For data set [2], the system named is Cucurbita maxima x Cucurbita moschata. The data set can be described thus: Phytotoxicity against inter-specific squash hybrid Cucurbita moschata x Cucurbita maxima (Strong tosa) rootstock seedlings. The format is organism-based. Conditions: in vivo.
The subject of data set [3] is Podosphaera xanthii. The data set can be described thus: Fungicidal activity against Podosphaera xanthii (powdery mildew) inoculated in squash (Cucurbita pepo) rootstock seedlings continuously after first drug application assessed as disease severity at 45% in 0.6 g/L applied thrice at 5-days intervals measured 5 days after third application under green house conditions (water Rvb = 3.9%). It counts as functional.

For data set [4], the system named is Podosphaera xanthii. The data set can be described thus: Fungicidal activity against Podosphaera xanthii (powdery mildew) inoculated in inter-specific squash hybrid Strong tosa (Cucurbita moschata x Cucurbita maxima) rootstock seedlings for 7 days prior to drug application assessed as disease severity on upper surface areas of cotyledonsat 45% in 0.6 g/L applied once measured 7 days post-drug dose under greenhouse conditions (water Rvb = 10.2%). It counts as functional.

The test system of data set [5] is Podosphaera xanthii. The data set can be described thus: Fungicidal activity against Podosphaera xanthii (powdery mildew) inoculated in inter-specific squash hybrid Strong tosa (Cucurbita moschata x Cucurbita maxima) rootstock seedlings for 7 days prior to drug application assessed as incidence of disease symptoms on hypocotyls or upper or lower sides of cotyledons at 45% in 0.6 g/L applied once measured 7 days post-drug dose under greenhouse …. It counts as functional.

The test system of data set [6] is Lagenaria siceraria. The data set can be described thus: Phytotoxicity against Lagenaria siceraria 'Emphasis' rootstock seedlings. The format is organism-based. Conditions: in vivo.
In data set [7] the test system is Podosphaera xanthii. The data set can be described thus: Fungicidal activity against Podosphaera xanthii (powdery mildew) inoculated in squash (Cucurbita pepo) rootstock seedlings continuously after first drug application assessed as incidence of disease symptoms on hypocotyls or upper or lower sides of cotyledons at 45% in 0.6 g/L applied thrice at 5-days intervals measured 5 days after third application under green house conditions (water Rvb = …. The format is functional.

Data set [8] has as its system Podosphaera xanthii. The data set can be described thus: Fungicidal activity against Podosphaera xanthii (powdery mildew) inoculated in inter-specific squash hybrid Strong tosa (Cucurbita moschata x Cucurbita maxima) rootstock seedlings for 7 days prior to drug application assessed as disease severity at 45% in 0.6 g/L applied once measured 7 days post-drug dose under greenhouse conditions (water Rvb = 17.5%). The format is functional.

Each structure is given as a SMILES string.

For `COC(=O)NC(=S)Nc1ccccc1NC(=S)NC(=O)OC` [THIOPHANATE METHYL], the Activity in data set [1] was 3%; in data set [2], “Non-toxic”; in data set [3], 3.2%; in data set [4] it was 3.9%; in data set [5], 85.4%; in data set [6], “Non-toxic”. Besides, the Activity is 90.8% in data set [7] and 7.4% in data set [8].
